Series [1] relates to THP1-Dual™ reporter cells. The experiment in a line: THP1-Dual cell reporter assay (IRF-Lucia luciferase reporter). It is filed as cell-based, human. Conditions: for EC50 (ng/mL): ADCs: drug linker conjugated to a targeted mAb, 48 h; for EC50: Homo sapiens, THP1-Dual, free compounds, 24 h, Lucia reporter signal, read-out: EC50. The essentials:
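THP1-Dual monocytic cells (~100,000/well) were exposed to compound for 24 h (ADCs 48 h). Secreted IRF-driven Lucia luciferase in the supernatant was quantified by QUANTI-Luc luminescence.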

The nature of series [2]: In vivo cytokine assay, plasma of Renca tumor-bearing mice. Details: species or system mouse. Here is the method: Cytokines were measured in mouse plasma harvested at 3, 6, 24, or 48 hours after treatment with compounds or ADCs using a Milliplex MAP mouse cytokine/chemokine magnetic bead panel assay kit (MCYTOMAG-70k custom 11-plex kit: MCP1, MIP1α, MIP1β, TNFα, IFNγ, IL-10, IL-12p70, IL-6, IL-1β, IP10, RANTES) and analyzed using a Luminex™ MAGPIX™ Instrument System. Values that were outside of the standard curve range (<3.2 or […]) were excluded from calculation of the mean values.

The test system of series [3] is Renca cancer cells. Briefly: Renca tumor model, in vivo anti-tumor activity and weight change. Conditions: Renca tumor-bearing mice. On the procedure:
In some experiments, Renca tumor cells were engineered to express the indicated murine or human target antigen.
When tumor volumes reached 100 mm^3, the mice were dosed with either compounds or ADCs by intraperitoneal or intravenous injection at the indicated dosing schedule and tumor volumes were monitored twice weekly. Compounds were formulated in 40% PEG400 in saline.
A syngeneic system was used to assess the ability of the STING agonist ADCs to induce immune responses in vivo and drive an anti-tumor immune response. The Renca system is a subcutaneous, mouse renal adenocarcinoma model. Female Balb/c mice were implanted with 2×10^6 Renca cells subcutaneously in the flank on day 0. When mean tumor size of 100 mm^3 (measured by using the formula Volume (mm^3)=0.5*Length*Width^2 where length is the longer dimension) was reached mice were randomized into treatment groups of ≥5 mice per group. Animals were then treated intraperitoneally (ADCs or compounds) or intravenously (compounds) with the indicated treatment every 7 days, for 3 doses total (or as indicated). Tumor length and width and the weight of the animals was measured throughout the study and tumor volume was calculated using the formula above. Animals were followed until the tumor volume reached ˜1000 mm^3; animals were then euthanized.

Where [4] appears, read: Renca tumor-bearing mice, 3 h, 1.86 mg/kg.
Setting [5] is: Renca tumor-bearing mice, 6 h, 1.86 mg/kg.
Where [6] appears, read: Renca tumor-bearing mice, 24 h, 1.86 mg/kg.

Results on eight compounds are retold here after patent US20240123079A1 (Seagen Inc., priority 2021, published 2024).

Regarding `CCn1nc(C)cc1C(=O)Nc1nc2cc(S(N)(=O)=O)ccc2n1C/C=C/Cn1c(NC(=O)c2cc(C)nn2C)nc2cc(C(N)=O)cc(OCCC3CN(C(=O)CCN4C(=O)C=CC4=O)C3)c21` [Compound 145, (E)-2-(1,3-dimethyl-1H-pyrazole-5-carboxamido)-7-(2-(1-(3-(2,5-dioxo-2,5-dihydro-1H-pyrrol-1-yl)propanoyl)azetidin-3-yl)ethoxy)-1-(4-(2-(1-ethyl-3-methyl-1H-pyrazole-5-carboxamido)-5-sulfamoyl-1H-benzo[d]imidazol-1-yl)but-2-en-1-yl)-1H-benzo[d]imidazole-5-carboxamide], the “EC50 (ng/mL)” value in series [1] is recorded as >10,000 ng/mL.
Still for that read-out and setting: the same measure for `CCn1nc(C)cc1C(=O)Nc1nc2cc(S(N)(=O)=O)ccc2n1C/C=C/Cn1c(NC(=O)c2cc(C)nn2CC)nc2cc(C(N)=O)cc(OCCCOC3CN(C(=O)CCN4C(=O)C=CC4=O)C3)c21` [Compound 146, (E)-7-(3-((1-(3-(2,5-dioxo-2,5-dihydro-1H-pyrrol-1-yl)propanoyl)azetidin-3-yl)oxy)propoxy)-2-(1-ethyl-3-methyl-1H-pyrazole-5-carboxamido)-1-(4-(2-(1-ethyl-3-methyl-1H-pyrazole-5-carboxamido)-5-sulfamoyl-1H-benzo[d]imidazol-1-yl)but-2-en-1-yl)-1H-benzo[d]imidazole-5-carboxamide]: >10,000 ng/mL.
In the case of `CCn1nc(C)cc1C(=O)Nc1nc2cc(S(N)(=O)=O)ccc2n1C/C=C/Cn1c(NC(=O)c2cc(C)nn2C)nc2cc(C(N)=O)cc(OCCCOC3CN(C(=O)CCN4C(=O)C=CC4=O)C3)c21` [Compound 147, (E)-2-(1,3-dimethyl-1H-pyrazole-5-carboxamido)-7-(3-((1-(3-(2,5-dioxo-2,5-dihydro-1H-pyrrol-1-yl)propanoyl)azetidin-3-yl)oxy)propoxy)-1-(4-(2-(1-ethyl-3-methyl-1H-pyrazole-5-carboxamido)-5-sulfamoyl-1H-benzo[d]imidazol-1-yl)but-2-en-1-yl)-1H-benzo[d]imidazole-5-carboxamide], in series [1], the “EC50 (ng/mL)” value is given as >10,000 ng/mL.
On the same count and under the same terms, the same measure for `CCn1nc(C)cc1C(=O)Nc1nc2cc(S(N)(=O)=O)ccc2n1C/C=C/Cn1c(NC(=O)c2cc(C)nn2C)nc2cc(C(N)=O)cc(OCCCN(C)C(=O)CCN3C(=O)C=CC3=O)c21` [Compound 148, (E)-2-(1,3-dimethyl-1H-pyrazole-5-carboxamido)-7-(3-(3-(2,5-dioxo-2,5-dihydro-1H-pyrrol-1-yl)-N-methylpropanamido)propoxy)-1-(4-(2-(1-ethyl-3-methyl-1H-pyrazole-5-carboxamido)-5-sulfamoyl-1H-benzo[d]imidazol-1-yl)but-2-en-1-yl)-1H-benzo[d]imidazole-5-carboxamide]: >10,000 ng/mL.
For `CCc1nc(C)oc1C(=O)Nc1nc2cc(C(N)=O)cc(OCCC3CN(C(=O)CCN4C(=O)CC(SC[C@H](N)C(=O)O)C4=O)C3)c2n1C/C=C/Cn1c(NC(=O)c2cc(C)nn2CC)nc2cc(C(N)=O)cc(OC)c21` (stereo partly drawn) [Compound 154, S-(1-(3-(3-(2-((5-carbamoyl-1-((E)-4-(5-carbamoyl-2-(1-ethyl-3-methyl-1H-pyrazole-5-carboxamido)-7-methoxy-1H-benzo[d]imidazol-1-yl)but-2-en-1-yl)-2-(4-ethyl-2-methyloxazole-5-carboxamido)-1H-benzo[d]imidazol-7-yl)oxy)ethyl)azetidin-1-yl)-3-oxopropyl)-2,5-dioxopyrrolidin-3-yl)-L-cysteine], the EC50 (usually the midpoint of the concentration-response curve) in series [1] is over 10000 nM.
Still for that read-out and setting: the same measure for `CCn1nc(C)cc1C(=O)Nc1nc2cc(C(N)=O)cc(OC)c2n1C/C=C/Cn1c(NC(=O)c2cc(C)nn2C)nc2cc(C(N)=O)cc(OCCCOC3CN(C(=O)CCN4C(=O)CC(SC[C@H](N)C(=O)O)C4=O)C3)c21` (stereo partly drawn) [Compound 155, S-(1-(3-(3-(3-((5-carbamoyl-1-((E)-4-(5-carbamoyl-2-(1-ethyl-3-methyl-1H-pyrazole-5-carboxamido)-7-methoxy-1H-benzo[d]imidazol-1-yl)but-2-en-1-yl)-2-(1,3-dimethyl-1H-pyrazole-5-carboxamido)-1H-benzo[d]imidazol-7-yl)oxy)propoxy)azetidin-1-yl)-3-oxopropyl)-2,5-dioxopyrrolidin-3-yl)-L-cysteine]: 94 nM.
On the same count and under the same terms, the same measure for `CCc1nc(C)oc1C(=O)Nc1nc2cc(C(N)=O)cc(OCCCOC3CN(C(=O)CCN4C(=O)CC(SC[C@H](N)C(=O)O)C4=O)C3)c2n1C/C=C/Cn1c(NC(=O)c2cc(C)nn2CC)nc2cc(C(N)=O)cc(OC)c21` (stereo partly drawn) [Compound 156, S-(1-(3-(3-(3-((5-carbamoyl-1-((E)-4-(5-carbamoyl-2-(1-ethyl-3-methyl-1H-pyrazole-5-carboxamido)-7-methoxy-1H-benzo[d]imidazol-1-yl)but-2-en-1-yl)-2-(4-ethyl-2-methyloxazole-5-carboxamido)-1H-benzo[d]imidazol-7-yl)oxy)propoxy)azetidin-1-yl)-3-oxopropyl)-2,5-dioxopyrrolidin-3-yl)-L-cysteine]: 1560 nM.
In series [2] (setting [4]), `CCn1nc(C)cc1C(=O)Nc1nc2cc(C(N)=O)cc(OC)c2n1C/C=C/Cn1c(NC(=O)c2cc(C)nn2CC)nc2cc(C(N)=O)cc(OCCCN3CCOCC3)c21.O=C(O)C(F)(F)F.O=C(O)C(F)(F)F.O=C(O)C(F)(F)F` [Compound A, (E)-1-(4-(5-carbamoyl-2-(1-ethyl-3-methyl-1H-pyrazole-5-carboxamido)-7-(3-morpholinopropoxy)-1H-benzo[d]imidazol-1-yl)but-2-en-1-yl)-2-(1-ethyl-3-methyl-1H-pyrazole-5-carboxamido)-7-methoxy-1H-benzo[d]imidazole-5-carboxamide tris(2,2,2-trifluoroacetate), reference compound] gave an IL1β in plasma of 1.5 pg/mL, an IL12p70 in plasma of 0.2 pg/mL, an IL-6 in plasma of 3550 pg/mL and an IL-10 in plasma of 0.5 pg/mL. In series [2] (setting [4]), this compound showed an IP10 in plasma of 4780 pg/mL and an MCP-1 in plasma of 14500 pg/mL. Moreover, in series [2] (setting [5]), the IFNγ in plasma was 71.8 pg/mL, the IL1β in plasma was found to be 0.6 pg/mL, the IL12p70 in plasma turned out to be 0.2 pg/mL and the IL-6 in plasma was 732 pg/mL. In series [2] (setting [5]), this compound yielded an IL-10 in plasma of under 3.2 pg/mL and an IP10 in plasma of 4980 pg/mL. In series [2] (setting [6]), the IFNγ in plasma is under 3.2 pg/mL, the IL1β in plasma turned out to be 0.3 pg/mL, the IL12p70 in plasma is under 3.2 pg/mL and the IL-6 in plasma is 16.4 pg/mL. In series [2] (setting [6]), this compound gave an IL-10 in plasma of under 3.2 pg/mL and an IP10 in plasma of 890 pg/mL. The “systemic pro-inflammatory cytokine (IL-6 and TNF) production” value in series [2] (plasma of tumor-bearing mice) was “induced robust production of IL-6 and TNF”. In addition, in series [1], the EC50 is 3 nM. Also, the “potency relative to other free compound” value in series [1] (free drug) was “significantly more potent”. Also, the “tolerability” value in series [3] is recorded as “less well tolerated”. Also, the “average weight loss after the 2nd dose” value in series [3] (q7dx3) stood at 6.2%.
